Assay [1] has as its system ubiquitin-immunoreactive inclusions. Nature of the assay: Ubiquitin immunohistochemistry in brain of α-synuclein transgenic mice. The class given is in vivo. Particulars: 35 mg/kg twice a day, 30 days; vs vehicle. How it is done:
(§1) Farnesyl transferase inhibitors Zarnestra and OSI-754 were administered to mice of the α-synuclein transgenic line described in Masliah et al. (Masliah et al. “Dopaminergic loss and inclusion body formation in alpha-synuclein mice: implications for neurodegenerative disorders” Science 287(5456):1265-69, 2000; incorporated herein by reference). Animals from this line have α-synuclein neuronal inclusions in the cortex, hippocampus, and the olfactory bulb (Masliah et al. “Dopaminergic loss and inclusion body formation in alpha-synuclein mice: implications for neurodegenerative disorders” Science 287(5456):1265-69, 2000; incorporated herein by reference). Transgenic mice were orally administered either FTI in 20% cyclodextrin solution or the same volume of vehicle alone twice a day for 30 or 90 days. In some cases, non-transgenic mice also received vehicle twice a day for 30 to 90 days. At the end of treatment, mice were sacrificed, and the brains removed and hemisected. […]
(§2) Formation of α-synuclein inclusions in the cortex and hippocampus was probed by immunostaining with an antibody for human α-synuclein. Cells positive for human α-synuclein were quantified. […] These regions were also analyzed for ubiquitin-immunoreactive inclusions and by the Campbell Switzer method of silver staining. […]

In assay [2] the test system is α-synuclein. Nature of the assay: Sandwich ELISA of total α-synuclein in brain fractions of α-synuclein transgenic mice. The class given is in vivo. Particulars: 35 mg/kg twice a day, 30 days. The protocol: (§3) Farnesyl transferase inhibitors Zarnestra and OSI-754 were administered to mice of the α-synuclein transgenic line described in Masliah et al. (Masliah et al. “Dopaminergic loss and inclusion body formation in alpha-synuclein mice: implications for neurodegenerative disorders” Science 287(5456):1265-69, 2000; incorporated herein by reference). Animals from this line have α-synuclein neuronal inclusions in the cortex, hippocampus, and the olfactory bulb (Masliah et al. “Dopaminergic loss and inclusion body formation in alpha-synuclein mice: implications for neurodegenerative disorders” Science 287(5456):1265-69, 2000; incorporated herein by reference). Transgenic mice were orally administered either FTI in 20% cyclodextrin solution or the same volume of vehicle alone twice a day for 30 or 90 days. In some cases, non-transgenic mice also received vehicle twice a day for 30 to 90 days. At the end of treatment, mice were sacrificed, and the brains removed and hemisected. One hemisphere of each was fixed in 4% paraformaldehyde/PBS (pH 7.4), cryoperserved, then sectioned for histology. The other hemisphere was subdivided into four brain regions, including the cortex and hippocampus, that were homogenized and processed into cytoplasmic and membrane fractions.
Total α-synuclein levels were analyzed by a sandwich ELISA assay similar to one previously described (El-Agnaf et al. “Detection of oligomeric forms of alpha-synuclein protein in human plasma as a potential biomarker for Parkinson's disease” FASEB J. 20(3):419-25, 2006; incorporated herein by reference). In the cortex of vehicle treated animals, α-synuclein protein levels in the α-synuclein transgenic line are greater than in non-transgenic mice in both cytoplasmic (FIG. 10) and membrane fractions (FIG. 11).
On the technique in general: In an ELISA, binding on a coated surface is turned into a signal by an enzyme label.

In assay [3] the test system is α-synuclein. Nature of the assay: Immunostaining for human α-synuclein in brain sections of α-synuclein transgenic mice. The class given is in vivo. The conditions noted are these: 35 mg/kg twice a day orally, 30 days, vs vehicle. The protocol:
as §3
Formation of α-synuclein inclusions in the cortex and hippocampus was probed by immunostaining with an antibody for human α-synuclein. Cells positive for human α-synuclein were quantified. […] These regions were also analyzed for ubiquitin-immunoreactive inclusions and by the Campbell Switzer method of silver staining. Ubiquitin is known to be a constituent of Lewy Bodies and in the α-synculein inclusions found in the transgenic mouse line used in the study (Masliah et al. “Dopaminergic loss and inclusion body formation in alpha-synuclein mice: implications for neurodegenerative disorders” Science 287(5456):1265-69, 2000; incorporated herein by reference). […] Campbell-Switzer staining is a general marker of Lewy Body type inclusions (Uchihara et al. “Silver stainings distinguish Lewy bodies and glial cytoplasmic inclusions: comparison between Gallyas-Braak and Campbell-Switzer methods” Acta Neuropathol. (Berl.) 110(3):255-60, 2005; incorporated herein by reference).

The test system of another assay is farnesylated UCH-L1. Nature of the assay: Quantitative Western Blot of farnesylated UCH-L1 in cortex membrane fraction of α-synuclein transgenic mice. The class given is in vivo. Particulars: 35 mg/kg twice a day, 30 days, 35 mg/kg. How it is done:
Farnesyl transferase inhibitors Zarnestra and OSI-754 were administered to mice of the α-synuclein transgenic line described in Masliah et al. (Masliah et al. “Dopaminergic loss and inclusion body formation in alpha-synuclein mice: implications for neurodegenerative disorders” Science 287(5456):1265-69, 2000; incorporated herein by reference). Animals from this line have α-synuclein neuronal inclusions in the cortex, hippocampus, and the olfactory bulb (Masliah et al. “Dopaminergic loss and inclusion body formation in alpha-synuclein mice: implications for neurodegenerative disorders” Science 287(5456):1265-69, 2000; incorporated herein by reference). Transgenic mice were orally administered either FTI in 20% cyclodextrin solution or the same volume of vehicle alone twice a day for 30 or 90 days. In some cases, non-transgenic mice also received vehicle twice a day for 30 to 90 days. At the end of treatment, mice were sacrificed, and the brains removed and hemisected. One hemisphere of each was fixed in 4% paraformaldehyde/PBS (pH 7.4), cryoperserved, then sectioned for histology. […]
Farnesylated UCH-L1 in the cortex is contained in the membrane fraction. The amount of UCH-L1 was determined by quantitative Western Blot.
Total α-synuclein levels were analyzed by a sandwich ELISA assay. […] The amount of farnesylated UCH-L1 was determined by quantitative Western Blot, then normalized to actin.

Assay [4] relates to Lewy body-like inclusions. Nature of the assay: Campbell Switzer silver staining of Lewy body-like inclusions in α-synuclein transgenic mice. The class given is in vivo. The conditions noted are these: 35 mg/kg twice a day, 30 days; vs vehicle. How it is done:
as §1, §2

Assay [5] concerns α-synuclein. Nature of the assay: α-synuclein degradation assay in transfected COS-7 cells (quantitative Western blotting). Particulars: transfected COS-7 cells, 35 μM lactacystin, 24 hours. The class given is cell-based. From the text:
Plasmids: C220S cDNA was generated by PCR site-specific mutagenesis. For the PCR, the 5′ primer is uchforw SEQ ID NO: 1 ([…]), and 3′ primer is uchc220s SEQ ID NO:2 (CTAAGA […]). Wt UCH-L1 served as the template. The PCR fragment was inserted into pcDNA vector. For S18YC220S mutant, S18Y UCH-L1 served as the template in PCR. For the FLAG tagged UCH-L1, the 5′ primer is FLAGuchforw SEQ ID NO: 3 ([…] CGATGGAG), and the 3′ primer is uchrev SEQ ID NO: 4 ([…]). Wt UCH-L1 or C220S served as the template. PCR fragment was purified and inserted into pcDNA vector. For the FLAG tagged UCH-L3, the 5′ primer is L3HindIII SEQ ID NO: 5 (CTAAAGCTTATGGACTAC […]), the 3′primer is L3XhoISAA SEQ ID NO: 6 ([…]). […] After 24 hours of incubation, the cells were lysed with Tris buffer (50 mM Tris, 2% SDS, 0.1% NP-40), and subjected to SDS-PAGE, followed by quantitative Western blotting.
Western Blotting: Following transfer of SDS gels onto NC membrane, all membranes were blocked with 5% non-fat milk in TBST (50 mM Tris-HCl pH7.4, 150 mM NaCl, 0.1% Tween 20), and incubated with primary antibody overnight with 1% BSA in TBST, washed three times with TBST, and incubated with horseradish peroxidase-conjugated secondary antibody for 1 hour (Promega). Bound antibodies were detected using enhanced chemiluminascence (NEM). […]
For orientation: In western blotting, separated proteins are transferred to a membrane and probed.

Setting [6] is: cortex, vs vehicle-treated transgenic mice.

Entries after “also recorded” stand apart in the source; their conditions may differ.

As to `Cn1cncc1C(N)(c1ccc(Cl)cc1)c1ccc2c(c1)c(-c1cccc(Cl)c1)cc(=O)n2C` (stereo not drawn) [Zarnestra], the ubiquitin-immunoreactive inclusions result in assay [1] is on record as “fewer ubiquitin-immunoreactive inclusions”. The “levels of α-synuclein protein in the cortex” value in the assay on α-synuclein [2] was “decreased levels of α-synuclein protein”. Further, in the assay on α-synuclein [2] (setting [6]), the “α-synuclein protein levels, cytoplasmic fraction” value was “lower α-synuclein protein levels” and the “α-synuclein protein levels, membrane fraction” value was “lower α-synuclein protein levels”. In addition, in the assay with α-synuclein [3] (cortex), the “α-synuclein-positive cells per mm^2” value was “significantly fewer”. For the same compound, the “α-synuclein-positive cells per mm^2” value in the assay with α-synuclein [3] (hippocampus) was “significantly fewer”. In addition, the “amount of farnesylated UCH-L1” value in the assay on farnesylated UCH-L1 is “decreased; also recorded: decreased the amount of farnesylated UCH-L1 in transgenic mice to levels similar to non-transgenic mice”. Also, the “inclusions by Campbell-Switzer staining” value in assay [4] is on record as “fewer inclusions”.

As for `CC(=O)N[C@@H](CSC(=O)[C@]1([C@@H](O)C(C)C)NC(=O)[C@H](C)[C@@H]1O)C(=O)O` [lactacystin], the “accumulation of α-synuclein (16 KDa, normalized against actin)” value in the assay on α-synuclein [5] was determined as 100%.
